Assay type in all cases: in vivo, human
One assay concerns esophageal microbiome. Description: 16S rRNA gene sequencing of esophageal brushings, randomized trial of antimicrobial mouth rinse. The text has this: (§1) The enrolled subjects were those already scheduled for upper endoscopy for clinical indications. • Subjects were randomized 1:1 to receive 0.12% chlorhexidine mouth rinse or no treatment. • Antimicrobial mouth rinse was used twice daily for two weeks leading up to the endoscopy. The two-week time frame was chosen as a practical end-point for the clinical study, and treatment can be for any desired period of time, i.e. to obtain the desired microbiome mix. • Baseline sample collection: Saliva, oral swab. • Samples collected at follow-up (day of endoscopy): Saliva, oral swab, esophageal brushings, gastric cardia brushings.
(§2) Patients scheduled to undergo upper endoscopy were randomized to treatment with chlorhexidine 0.12% mouth rinse or no mouth rinse for two weeks leading up to the endoscopy. Oral samples (swabs and saliva) were collected at baseline and after two weeks. During the endoscopy, brushings of the esophagus and of the gastric cardia were collected to sample the microbiome.
16 S rRNA gene sequencing was performed on all of the biosamples. The V3-V4 hypervariable region for all samples was sequenced using the Illumina HiSeq 2500 in Rapid Mode with 2×300 bp read length (Illumina, San Diego, Calif.). The Greengenes reference database was used. Taxonomic units were clustered at 97% sequence similarity using USEARCH and taxonomic assignments were made using mothur. A phylogenetic tree of the contigs was generated with FastTree version 2.1.7.
In order to determine whether chlorhexidine alters the esophageal microbiome, a comparison of the microbiome composition from esophageal samples was performed, comparing the treatment and no treatment arms.

The test system of another assay is salivary microbiome. Description: 16S rRNA gene sequencing of saliva, randomized trial of antimicrobial mouth rinse. The conditions noted are these: LEfSe.
Excerpt: as §1, §2
16 S rRNA gene sequencing was performed on all of the biosamples. The V3-V4 hypervariable region for all samples was sequenced using the Illumina HiSeq 2500 in Rapid Mode with 2×300 bp read length (Illumina, San Diego, Calif.). The Greengenes reference database was used. Taxonomic units were clustered at 97% sequence similarity using USEARCH and taxonomic assignments were made using mothur. […]

Assay [1] concerns culturable bacteria in the esophagus. Description: Culture of esophageal brushings on TSA plates with 5% sheep blood after two weeks of mouth rinse (randomized trial). As for the experimental part: A randomized controlled trial of chlorhexidine antimicrobial mouth rinse study was conducted in patients scheduled to undergo upper endoscopy. It is postulated that the microbiome may play a role in the development of various esophageal and other upper gastrointestinal diseases such as Barrett's esophagus and esophageal cancer. The microbiome of the upper gastrointestinal tract is heavily influenced by migration of bacteria from the mouth via swallowed secretions. Therefore, it stands to reason that altering the oral microbiome can directly impact the microbiome of the esophagus and gastric cardia. Chlorhexidine mouth rinse (i.e. an antiseptic oral rinse) effectively alters levels of many bacteria in the mouth, including anaerobes and species that are not easily cultured, and also has anti-inflammatory effects. A randomized open-label pilot study was performed to test this hypothesis that use of an antimicrobial mouth rinse alters the microbiome of the lower esophagus and gastric cardia.
as §1, §2
An interim analysis was performed on the esophageal brushings collected during upper endoscopy. Approximately one half of the bacteria in the esophagus can be readily cultured. Thus, it was hypothesized that a change in the amount of culturable bacteria (either increased or decreased) would reflect a change in the proportion of culturable:non-culturable bacteria in the esophagus. Samples from the first 14 subjects (8 controls not using mouth rinse, 6 subjects using chlorhexidine mouth rinse) were collected, and solutions were prepared from these samples. The samples were then plated onto trypticase soy agar (TSA) plates with 5% sheep blood and incubated for 18 hours at 37° C.

Setting [2] is: 0.12% mouth rinse twice daily for two weeks before endoscopy, n = 6, plated on TSA, 18 hours at 37° C.

Turning to `[H]/N=C(\N/C(=N/[H])NCCCCCCNC(=N)NC(=N)Nc1ccc(Cl)cc1)Nc1ccc(Cl)cc1` [Chlorhexidine, chlorhexidine], in the assay with esophageal microbiome (FIG. 5), the “beta diversity analysis of esophageal microbiome, clustering by treatment group” value is “significant clustering by treatment group”. Also, the “esophageal microbiome composition compared to patients receiving no treatment” value with esophageal microbiome (FIGS. 5-6) was “markedly distinct”. Besides, in the assay on esophageal microbiome (vs no treatment arm, FIG. 6), the “relative abundance of Haemophilus in the esophageal microbiome” value was “significantly decreased” and the “relative abundance of Streptococcus in the esophageal microbiome” value is given as “increased”. Moreover, the “taxonomic changes in salivary microbiome after treatment compared to baseline” value in the assay with salivary microbiome (2 weeks' treatment, FIG. 4A) was “Numerous taxa were altered”. The “differences in salivary microbiome at follow-up versus no treatment in phylum Firmicutes and species Haemophilus parainfluenzae” value in the assay with salivary microbiome (follow-up, FIG. 4B) is recorded as “large differences were seen”. Moreover, in assay [1] (setting [2]), the “Mean (SE) CFU/mL from esophageal brushings collected at endoscopy” value is 56,433 (42,654) CFU/mL and the “Mean (SE) number of colonies from esophageal brushings collected at endoscopy” value was 282 (213). Moreover, in assay [1] (FIGS. 3A-B), the “numbers of culturable bacteria (colonies and CFU/mL) in the esophagus compared to no chlorhexidine rinse” value is reported as “increased numbers of culturable bacteria”. In addition, the “increase in growth of culturable bacteria compared to the arm not receiving mouth rinse” value in assay [1] (esophageal brushings, 6 subjects using rinse vs 8 controls) came out at 68%.

The values are drawn from US11684595B2, “Characterization of the oral microbiome for the non-invasive diagnosis of Barrett's esophagus” (The Trustees of Columbia University in the City of New York, priority 2017, dated 2023).
